Measurements: patent publication US20250375453A1, “HIGH-EFFICIENCY ANTIMICROBIAL COMPOSITION” (CM4CURE S.A., priority 2023, published 2025)

Legend:
[1] = test system: Pseudomonas aeruginosa (ATCC 15442); assay: Real-time microcalorimetric measurement of bacterial metabolic activity (heat flow, Calscreener); assay type: cell-based; conditions: chlorhexidine digluconate alone, tested 1-24 mg/L, TSB, 37 C, 24 h or more
Description: Pseudomonas aeruginosa (ATCC 15442) was grown overnight in TSB (tryptic soy broth) medium, before being diluted 1×10^7 fold in fresh TSB. Subsequently […] aliquots of diluted bacteria suspensions were respectively supplemented with 1, 2, 4, 6, 12 and 24 mg/L of chlorhexidine (digluconate solution, 20% in H2O, Merck). The aqueous solution of chlorhexidine was kept refrigerated according to the manufacturer's technical sheet. Chlorhexidine or mQH2O as a vehicle were added to the bacterial suspensions to obtain the given concentrations followed by a brief vortexing. Bacterial aliquots were then distributed in the dedicated non-activated inserts of a 48-well plate and grown for 24h or more under static conditions at 37 C using Calscreener technology to measure bacterial growth and metabolic activity in Real-Time as described in https://cordis.europa.eu/project/id/784514.
For the study of the combination of chlorhexidine and triafluocyl aforementioned diluted bacterial suspensions were supplemented with either chlorhexidine alone (1, 2, 4, 6, 12 mg/L) or mixed with triafluocyl (20 mg/L, Polpharma). Triafluocyl was stored in absolute ethanol in the refrigerator at a concentration of 3 mg/mL. Triafluocyl, chlorhexidine or both, and ethanol as a vehicle were added to the bacterial suspensions to obtain the given concentrations.
Pseudomonas aeruginosa (ATCC 15442) was grown overnight in TSB (tryptic soy broth) medium, before being diluted 1×10^7 fold in fresh TSB. Subsequently […] aliquots of diluted bacteria suspensions were respectively supplemented with […] of alexidine dihydrochloride (stock solution of 3 mg/mL in ethanol, Merck). […] The stock solutions of alexidine and fluometacyl were kept frozen according to the manufacturer's technical sheet. Alexidine alone or with fluometacyl, and ethanol as a vehicle were added to the bacterial suspensions to obtain the given concentrations followed by a brief vortexing. […]

[2] = test system: Staphylococcus aureus (MRSA, ATCC 6538); assay: as above; assay type: cell-based
Description: Staphylococcus aureus (MRSA, ATCC 6538) was grown overnight in TSB (tryptic soy broth) medium, before being diluted 1×10^6 fold in fresh TSB. Subsequently […] aliquots of diluted bacteria suspensions were respectively supplemented with 1 and 2 mg/L of chlorhexidine (digluconate solution, 20% in H2O, Merck). […] The aqueous solution of chlorhexidine and the ethanol-based solution of triafluocyl were kept refrigerated. Chlorhexidine, triafluocyl or both, and ethanol as a vehicle were added to the bacterial suspensions to obtain the given concentrations followed by a brief vortexing. Bacterial aliquots were then distributed in the dedicated non-activated inserts of a 48-well plate and grown for 24 h or more under static conditions at 37 C using Calscreener technology to measure bacterial growth and metabolic activity in Real-Time as described in https://cordis.europa.eu/project/id/784514.
Staphylococcus aureus (MRSA, ATCC 6538) was grown overnight in TSB (tryptic soy broth) medium, before being diluted 1×10^6 fold in fresh TSB. Subsequently […] aliquots of diluted bacteria suspensions were respectively supplemented with 0.25, 0.5 and 1 μg/mL of chlorhexidine (digluconate solution, 20% in H2O, Merck) or alexidine dihydrochloride (stock solution of 3 mg/mL in ethanol, Merck).
The aqueous solution of chlorhexidine and the ethanol-based solution of alexidine were kept refrigerated. Chlorhexidine, alexidine, and ethanol as a vehicle were added to the bacterial suspensions to obtain the given concentrations followed by a brief vortexing. Bacterial aliquots were then distributed in the dedicated non-activated inserts of a 48-well plate and grown for 24 h or more under static conditions at 37 C using Calscreener technology to measure bacterial growth and metabolic activity in Real-Time as described in https://cordis.europa.eu/project/id/784514.
Staphylococcus aureus (MRSA, ATCC 6538) was grown overnight in TSB (tryptic soy broth) medium, before being diluted 1×10^6 fold in fresh TSB. Subsequently […] aliquots of diluted bacteria suspensions were respectively supplemented with […] of alexidine dihydrochloride (stock solution of 3 mg/mL in ethanol, Merck). […] The ethanol-based solutions of alexidine and fluometacyl were stored at −20° C.
Alexidine alone or with fluometacyl, and ethanol as a vehicle were added to the bacterial suspensions to obtain the given concentrations followed by a brief vortexing. Bacterial aliquots were then distributed in the dedicated non-activated inserts of a 48-well plate and grown for 24 h or more under static conditions at 37 C using Calscreener technology to measure bacterial growth and metabolic activity in Real-Time.

Candida albicans (CA) = assay: MIC in monotherapy and in combination therapy (ISO standard 20776-1); assay type: cell-based
From the text: (§1) Summary of MIC Values for Fluometacyl (FLC)+Chlorhexidine (CHX) Tested Against MRSA, Enterococcus faecalis (VRE), Pseudomonas aeruginosa (PA) and Candida albicans (CA).
(§2) By Minimum Inhibitory Concentration (MIC) one means the lowest concentration of antimicrobial that prevents visible growth of a microorganism (determined according to ISO standard 20776-1).
(§3) This finds an implication in combining many known antimicrobials together rather than discovering new chemical entities.

[3] = test system: Pseudomonas aeruginosa (PA); assay: as above; assay type: cell-based
From the text: as §1, §2, §3

[4] = test system: Staphylococcus aureus (MRSA); assay: as above; assay type: cell-based
From the text: as §1, §2, §3

Enterococcus faecalis = conditions: cited from earlier work
Fusobacterium nucleatum = conditions: cited from earlier work
Klebsiella spp. = conditions: cited from earlier work
Candida krusei = conditions: cited from earlier work
[5] = chlorhexidine base; cited from earlier work
[6] = MIC combination / MIC monotherapy

- MIC (Candida albicans (CA); Candida albicans, antimicrobial alone, read-out: MIC Monotherapy (X)): 4000 µg/mL
- MIC combination dual therapy (Y) (Candida albicans (CA); in FLC + CHX combination): 2000 µg/mL
- MIC ([3]; Pseudomonas aeruginosa, antimicrobial alone, read-out: MIC Monotherapy (X)): 16000 µg/mL
- MIC combination dual therapy (Y) ([3]; in FLC + CHX combination): 4000 µg/mL
- MIC ([4]; Staphylococcus aureus, MRSA, antimicrobial alone, read-out: MIC Monotherapy (X)): 1000 µg/mL
- MIC combination dual therapy (Y) ([4]; in FLC + CHX combination): 250 to 500 µg/mL
SMILES: [H]/N=C(\N/C(=N/[H])NCCCCCCNC(=N)NC(=N)Nc1ccc(Cl)cc1)Nc1ccc(Cl)cc1 [Chlorhexidine, chlorhexidine]
- concentration that fully inhibits bacterial proliferation [1]: 24 mg/L
- effect on metabolic activity (heat flow) ([2]; chlorhexidine 1 mg/L alone): strong shift in a metabolic activity
- effect on metabolic activity (heat flow) ([2]; chlorhexidine 1 mg/mL alone (Example 3)): strong shift in a metabolic activity
- concentration with full growth inhibition or bactericidal effect ([2]; chlorhexidine digluconate alone, tested 1 and 2 mg/L): 2 mg/L
- Ratio Y/X (Candida albicans (CA); [6]): 0.5
- Ratio Y/X [3, 6]: 0.25
- Ratio Y/X [4, 6]: 0.25-0.5
- MIC of chlorhexdine (Enterococcus faecalis): 4 to 16 µg/mL
- MIC of chlorhexdine (Fusobacterium nucleatum): 1.8 µg/mL
- MIC of chlorhexdine (Klebsiella spp.): 8 to 16 µg/mL
- MIC of chlorhexdine (Candida krusei): 150 µg/mL
- solubility in water [5]: insoluble in water
